The species named for one assay is Bos taurus. As to the kind of experiment: Inhibition of bovine trypsin. Particulars: TDE = time-dependent effect.
In another assay the target is T1, Neutrophil elastase (Homo sapiens, UniProt P08246).
T1 sequence (P08246 whole entry): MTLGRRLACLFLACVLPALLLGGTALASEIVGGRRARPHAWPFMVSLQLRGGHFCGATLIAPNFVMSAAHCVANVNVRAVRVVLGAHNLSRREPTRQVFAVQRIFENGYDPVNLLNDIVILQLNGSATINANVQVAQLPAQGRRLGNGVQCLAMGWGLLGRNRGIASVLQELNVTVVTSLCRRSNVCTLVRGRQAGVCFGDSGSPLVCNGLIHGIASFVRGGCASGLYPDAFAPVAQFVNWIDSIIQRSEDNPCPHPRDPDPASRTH
The assay is described as follows: Inhibition human neutrophil elastase.

Assay [1] has as its target T2, Neutrophil elastase (Homo sapiens) (UniProt P08246).
T2 sequence (whole entry): T1 sequence (P08246 whole entry)
The assay is described as follows: Ratio of Kinact to KI for human neutrophil elastase.

Take `CCCC1C(=O)N(COC(=O)c2c(Cl)cccc2Cl)S(=O)(=O)N1C` (stereo not drawn): the Activity entry in the assay filed under Bos taurus was “tde”. The affinity at Neutrophil elastase corresponds to a Ki of 5.47 nM. Also, in assay [1], the Ratio was 8.9 10^6/M/s.

The values above are taken from ChEMBL document CHEMBL1145543, “X-ray snapshot of the mechanism of inactivation of human neutrophil elastase by 1,2,5-thiadiazolidin-3-one 1,1-dioxide derivatives” (J Med Chem, 2008).
